Data published in US20240158446A1, “CYCLIC COMPOUND HAVING SELECTIVE INHIBITORY ACTION ON KRAS OVER HRAS AND NRAS” (CHUGAI SEIYAKU KABUSHIKI KAISHA, priority 2021, published 2024).
Where two headings read alike, the source gives them in different places.

Legend:
[1] = target: GDP-bound NRAS wild-type protein (Homo sapiens, UniProt P01111); assay: Binding to NRAS by surface plasmon resonance (SPR), Single Cycle Kinetics; conditions: for NRAS/KRAS (ratio of KD value for NRAS to KD value for KRAS) / NRAS/KRAS (ratio of KD value with respect to NRAS to KD value with respect to KRAS): SPR, GDP-bound NRAS wild-type protein vs GDP-bound KRAS wild-type protein
[2] = target: GDP-bound KRAS wild-type protein (Homo sapiens, UniProt P01116); assay: Binding to KRAS by surface plasmon resonance (SPR), Single Cycle Kinetics; conditions: GDP-bound KRAS wild-type protein, read-out: KRAS KD
[3] = target: GDP-bound HRAS wild-type protein (Homo sapiens, UniProt P01112); assay: Binding to HRAS by surface plasmon resonance (SPR), Single Cycle Kinetics; conditions: for HRAS/KRAS (ratio of KD value for HRAS to KD value for KRAS) / HRAS/KRAS (ratio of KD value with respect to HRAS to KD value with respect to KRAS): SPR, GDP-bound HRAS wild-type protein vs GDP-bound KRAS wild-type protein
[4] = SPR Single Cycle Kinetics, 1:1 binding model

Chain of GDP-bound NRAS wild-type protein (P01111 whole entry): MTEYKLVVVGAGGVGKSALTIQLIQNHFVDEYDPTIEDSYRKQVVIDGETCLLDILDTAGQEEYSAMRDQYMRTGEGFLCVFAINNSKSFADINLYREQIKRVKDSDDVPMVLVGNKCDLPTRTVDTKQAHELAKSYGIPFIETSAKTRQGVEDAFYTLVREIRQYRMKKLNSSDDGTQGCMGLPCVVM
Chain of GDP-bound KRAS wild-type protein (P01116 whole entry): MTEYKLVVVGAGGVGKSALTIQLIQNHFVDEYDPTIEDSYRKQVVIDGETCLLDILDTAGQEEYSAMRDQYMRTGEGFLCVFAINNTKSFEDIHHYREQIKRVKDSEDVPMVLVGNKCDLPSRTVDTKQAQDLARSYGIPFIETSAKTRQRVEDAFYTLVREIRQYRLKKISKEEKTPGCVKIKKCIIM
Chain of GDP-bound HRAS wild-type protein (P01112 whole entry): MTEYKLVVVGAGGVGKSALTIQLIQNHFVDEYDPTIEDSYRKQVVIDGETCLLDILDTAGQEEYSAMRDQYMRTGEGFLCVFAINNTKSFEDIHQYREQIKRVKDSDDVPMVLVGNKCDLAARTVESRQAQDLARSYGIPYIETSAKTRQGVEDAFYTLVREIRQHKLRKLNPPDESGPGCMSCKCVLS

SMILES	NRAS/KRAS (ratio of KD value for NRAS to KD value for KRAS) [1]	Kd ([2]; SPR, Single Cycle Kinetics) [pM]	HRAS/KRAS (ratio of KD value for HRAS to KD value for KRAS) [3]	NRAS/KRAS (ratio of KD value with respect to NRAS to KD value with respect to KRAS) [1]	Kd [2, 4] [pM]	HRAS/KRAS (ratio of KD value with respect to HRAS to KD value with respect to KRAS) [3]	NRAS/KRAS (ratio of KD value with respect to GDP-bound NRAS wild-type protein to KD value with respect to KRAS) ([1]; SPR KD ratio NRAS/KRAS, class symbols)	HRAS/KRAS (ratio of KD value with respect to GDP-bound HRAS wild-type protein to KD value with respect to KRAS) ([3]; SPR KD ratio HRAS/KRAS, class symbols)
CC[C@H](C)[C@@H]1NC(=O)[C@H](COC)N(C)C(=O)C[C@@H](C(=O)N2CCOCC2)N(C)C(=O)[C@H](C2CCCC2)N(C)C(=O)C2(CCCC2)NC(=O)[C@@H]2CCCN2C(=O)[C@H](CCc2ccc(C(F)(F)F)c(Cl)c2)NC(=O)CN(C)C(=O)[C@H](Cc2ccc(F)cc2)N2CCCCC[C@@H](C2=O)N(C)C(=O)CN(C)C1=O [PP0960]	B (a compound having 3 or more and less than 10 is denoted as B)	370	B (a compound having 3 or more and less than 10 is denoted as B)	–	–	–	–	–
CC[C@H](C)[C@@H]1NC(=O)[C@H](CC(C)C)N(C)C(=O)C[C@@H](C(=O)N2CCOCC2)N(C)C(=O)[C@H](C2CCCC2)N(C)C(=O)C2(CCCC2)NC(=O)[C@@H]2CCCN2C(=O)[C@H](CCc2ccc(C(F)(F)F)c(Cl)c2)NC(=O)CN(C)C(=O)[C@H](Cc2ccc(OC)cc2)N2CCCCC[C@@H](C2=O)N(C)C(=O)CN(C)C1=O [PP0614]	–	–	–	B (a compound having 3 or more and less than 10 is denoted as B)	1100	B (a compound having 3 or more and less than 10 is denoted as B)	–	–
CCO[C@@H]1C[C@H]2C(=O)NC3(CCC3)C(=O)N(C)[C@@H](C3CCCC3)C(=O)N(C)[C@H](C(=O)N(C)C)CC(=O)N(C)[C@@H](CC3CCCC3)C(=O)N[C@@H]([C@@H](C)CC)C(=O)N(C)CC(=O)N(C)[C@H]3C/C=C\CCN(C3=O)[C@@H](Cc3ccc(C)cc3)C(=O)N(C)CC(=O)N[C@@H](CCc3ccc(C4CC4)c(C)c3)C(=O)N2C1 [PP2685]	–	–	–	–	2100	–	A (a compound having 10 or more and less than 20 is denoted as A)	A (a compound having 10 or more and less than 20 is denoted as A)
CCO[C@@H]1C[C@H]2C(=O)NC3(CCC3)C(=O)N(C)[C@@H](C(CC)CC)C(=O)N(C)[C@H](C(=O)N3CCCCC3)CC(=O)N(C)[C@H]3CCCC/C=C/c4ccc(cc4)C[C@@H](C(=O)N(C)CC(=O)N[C@@H](CCc4ccc(Cl)c(Cl)c4)C(=O)N2C1)N1CC/C=C\C[C@@H](C1=O)N(C)C(=O)CN(C)C(=O)[C@H]([C@@H](C)CC)NC3=O [PP3046]	AA (a compound having 20 or more is denoted as AA)	390	A (a compound having 10 or more and less than 20 is denoted as A)	–	–	–	–	–
CC[C@H](C)[C@@H]1NC(=O)[C@H](C)N(C)C(=O)C[C@@H](C(=O)N(C)C)N(C)C(=O)[C@H](C2CCCC2)N(C)C(=O)C2(CCCC2)NC(=O)[C@@H]2CC(F)(F)CN2C(=O)[C@H](CCc2cc(F)c(C(F)(F)F)c(F)c2)NC(=O)CN(C)C(=O)[C@H](Cc2ccc(C(F)(F)F)cc2)N2CCCC[C@@H](C2=O)N(C)C(=O)CN(C)C1=O [PP0583]	–	–	–	C (A compound having a KD ratio of 0.1 or more and less than 3 is denoted as C)	19	C (A compound having a KD ratio of 0.1 or more and less than 3 is denoted as C)	–	–
CCO[C@@H]1C[C@H]2C(=O)NC3(CCCC3)C(=O)N(C)[C@@H](C3CCCC3)C(=O)N(C)[C@H](C(=O)N(C)C)CC(=O)N(C)[C@@H](C)C(=O)N[C@@H]([C@@H](C)CC)C(=O)N(C)CC(=O)N(C)[C@H]3CCCCCN(C3=O)[C@@H](Cc3ccc(C(F)(F)F)cc3)C(=O)N(C)CC(=O)N[C@@H](CCc3cc(F)c(C(F)(F)F)c(F)c3)C(=O)N2C1 [PP0475]	–	–	–	B (a compound having 3 or more and less than 10 is denoted as B)	460	B (a compound having 3 or more and less than 10 is denoted as B)	–	–
CC[C@H](C)[C@@H]1NC(=O)[C@H](CC)N(C)C(=O)C[C@@H](C(=O)N(C)C)N(CC)C(=O)[C@H](C2CCCC2)N(C)C(=O)C2(CCC2)NC(=O)[C@@H]2C[C@H](N3CCC(F)(F)CC3)CN2C(=O)[C@H](CCc2cc(F)c(C(F)(F)F)c(F)c2)NC(=O)CN(C)C(=O)[C@H](Cc2ccc(C(F)(F)F)cc2)N2CCCC[C@@H](C2=O)N(C)C(=O)CN(C)C1=O [PP0659]	–	–	–	B (a compound having 3 or more and less than 10 is denoted as B)	420	B (a compound having 3 or more and less than 10 is denoted as B)	–	–
CCO[C@@H]1C[C@H]2C(=O)NC3(CC(C)(C)C3)C(=O)N(C)[C@@H](C(CC)CC)C(=O)N(C)[C@H](C(=O)N(C)C)CC(=O)N(C)[C@@H](CC3CCC3)C(=O)N[C@@H]([C@@H](C)CC)C(=O)N(C)CC(=O)N(C)[C@H]3C/C=C\CCN(C3=O)[C@@H](Cc3ccc(C(F)(F)F)cc3)C(=O)N(C)CC(=O)N[C@@H](CCc3ccc(C(F)(F)F)c(OC)c3)C(=O)N2C1 [PP2164]	A (a compound having 10 or more and less than 20 is denoted as A)	290	A (a compound having 10 or more and less than 20 is denoted as A)	–	–	–	–	–
CC[C@H](C)[C@@H]1NC(=O)[C@H](CC(C)C)N(C)C(=O)C[C@@H](C(=O)N2CCOCC2)N(C)C(=O)[C@H](C2CCCC2)N(C)C(=O)C2(CCC2)NC(=O)[C@@H]2C[C@@H](C(F)(F)F)CN2C(=O)[C@H](CCc2cc(F)c(C(F)(F)F)c(F)c2)NC(=O)CN(C)C(=O)[C@H](Cc2ccc(C(F)(F)F)cc2)N2CCCC[C@@H](C2=O)N(C)C(=O)CN(C)C1=O [PP0809]	–	–	–	B (a compound having 3 or more and less than 10 is denoted as B)	27	B (a compound having 3 or more and less than 10 is denoted as B)	–	–
CC[C@H](C)[C@@H]1NC(=O)[C@H](CC(C)C)N(C)C(=O)C[C@@H](C(=O)N2CCOCC2)N(C)C(=O)[C@H](C2CCCC2)N(C)C(=O)C2(CCCCC2)NC(=O)[C@@H]2CCCN2C(=O)[C@H](CCc2cc(F)c(C(F)(F)F)c(F)c2)NC(=O)CN(C)C(=O)[C@H](Cc2ccc(C(F)(F)F)cc2)N2CCCCC[C@@H](C2=O)N(C)C(=O)CN(C)C1=O [PP0498]	–	–	–	B (a compound having 3 or more and less than 10 is denoted as B)	18000	B (a compound having 3 or more and less than 10 is denoted as B)	–	–
CCC[C@H]1C(=O)N[C@@H](C2CCCC2)C(=O)N(C)CC(=O)N(C)[C@H]2C/C=C\CCN(C2=O)[C@@H](Cc2ccc(C(F)(F)F)cc2)C(=O)N(C)CC(=O)N[C@@H](CCc2ccc(C(F)(F)F)c(Cl)c2)C(=O)N2C[C@H](OCC)C[C@H]2C(=O)NC2(CC(C)(C)C2)C(=O)N(C)[C@@H](CC(C)(C)C)C(=O)N(C)[C@H](C(=O)N(C)C)CC(=O)N1C [PP2971]	A (a compound having 10 or more and less than 20 is denoted as A)	190	A (a compound having 10 or more and less than 20 is denoted as A)	–	–	–	–	–
